The values that follow are results of earlier work, collected in patent publication US11129837B2, “Salicylate compound composition” (Innovate Pharmaceuticals Limited, priority 2014, dated 2021).

The subject of one data set is rat stomachs. The conditions noted are these: for effect on PGE2: given either orally or subcutaneously.
Data set [1] has as its system malignant glioblastoma RG2 cells. The conditions noted are these: administered the day before tumour cell inoculation and in established tumours.
Another data set has as its system colorectal cancer. The conditions noted are these: daily ingestion over an 8-10 year period, at any dose.
In data set [2] the test system is PGE2 synthesis in C6 cells. The conditions noted are these: high and low dose.
Another data set concerns cancer. The conditions noted are these: daily aspirin.
For data set [3] the following is noted: human patients.
The test system of a further data set is glioma stem cells. The conditions noted are these: versus normal glial cells or neural stem cells.

In the case of `COc1ccc2c(c1)c(CC(=O)O)c(C)n2C(=O)c1ccc(Cl)cc1` [Indomethacin], the “effect on PGE2” value in the data set on rat stomachs is on record as “decrease PGE2”.

For the molecule `CC(=O)Oc1ccccc1C(=O)O` [aspirin, 2-(acetoxy)benzoic acid], the “growth of RG2 glioblastoma cells in rat” value in data set [1] is “significantly inhibited the growth”. Moreover, in the data set with colorectal cancer, the “reduction of CRC-associated mortality” value is 35% and the “reduction of the risk of colorectal cancer” value is recorded as 24%. Further, the “effect on PGE2” value in the data set with rat stomachs is “decrease PGE2”. In addition, in the data set on rat stomachs (given orally or subcutaneously), the gastric damage result was “only caused damage when given orally”. For the same molecule, the PGE2 synthesis result in data set [2] is on record as “directly inhibited PGE2 synthesis”. For the same molecule, in the data set with cancer, the “reduction of cancer mortality” value was “around 20%”. Moreover, in data set [3], the maximum tolerated dose entry is “about 4 g”. The apoptosis result with A172 glioblastoma cells is reported as “induced significant apoptosis”.

For the molecule `CC(=O)OCC(COC(C)=O)OC(C)=O` [Glycerin triacetate, 1,3-Diacetyloxypropan-2-yl acetate], the “growth of glioma stem cells in culture” value in the data set with glioma stem cells is reported as “slowing the growth”.
